Columns and labels:
brain [1] = experiment: MSI imaging of brain sections (phosphatidylcholines, choline, creatine); assay type: in vivo; conditions: SD rats, rapamycin 0.2 mg/kg i.p., ketamine 30 mg/kg i.p.
Experimental: (§1) There were three animals (n=3) in each group. Animals were sacrificed and the brain removed and frozen for imaging studies.
All MSI imaging experiments were performed on a Bruker ultrafleXtreme TOF/TOF mass spectrometer. For matrix evaluation, 4 serial sections of thickness 10 μm from sham control brain S2 were acquired using a Leica CM 1850 Cryostat and subsequently thaw mounted onto an ITO coated glass slide. Each section in turn was coated with 15 mL of 20 mg mL^−1 of CHCA in CH3OH, 0.1% TFA) using an artist airbrush while the remaining 2 sections were covered. Data were collected over the mass range m/z 60-1400. MSI experiments of a single section from each group (Rapa, Ket and Control) were conducted. […]. Images were acquired with a pixel size of 100 μm×100 μm.

brain [2] = experiment: T2 weighted MRI of brain after mTOR inhibition/activation; assay type: in vivo; conditions: SD rats; rapamycin 0.2 mg/kg i.p., ketamine 30 mg/kg i.p.; n=3
Description: as §1

CNC1(c2ccccc2Cl)CCCCC1=O (stereo not shown) [ketamine]
phosphatidylcholine species in the brain (ion images) relative to control (brain [1]): clear differences induced by mTOR inhibition or activation | choline levels in the brain (brain [1]; vs control): measureable changes | creatine levels in the brain (brain [1]; vs control): measureable changes | T2 weighted MRI images versus control animals (brain [2]): clear differences in the T2 weighted MRI images

Reference: patent publication US9944986B2, “Therapeutic targets for Alzheimer's disease” (The University of Birmingham, priority 2012, dated 2018)
